Reference: ChEMBL document CHEMBL1201862, “PubChem BioAssay data set” (2004)
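Where inhibition never reached the appropriate level, the endpoint shown equals the highest concentration tested. Otherwise, values were interpolated linearly from a five-concentration, 48-hour dose response in 96-well plates. Here, GI50 denotes the concentration required for 50% inhibition of growth.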 The source made the active and inactive calls. No stated cut-off is given here; in the data, active = GI50 up to about 1.1 µM and inactive = higher.

Columns and labels:
Experiment in all cases: inhibition of tumour cell growth, NCI panel, 48 h
[1] = tested on: NCI-H23
[2] = tested on: NCI/ADR-RES
[3] = tested on: MOLT-4
[4] = tested on: MDA-N
[5] = tested on: A549
[6] = tested on: IGROV-1
[7] = tested on: DU-145
[8] = tested on: SN12C
[9] = tested on: SF-539
[10] = tested on: HL-60
[11] = tested on: ACHN
[12] = tested on: PC-3
[13] = tested on: SK-MEL-2
[14] = tested on: KM12
[15] = tested on: HT-29
[16] = tested on: HCC 2998
[17] = tested on: SR
[18] = tested on: OVCAR-8
[19] = tested on: U-251
[20] = tested on: T47D

SMILES	GI50 [1]	GI50 [2]	GI50 [3]	GI50 [4]	GI50 [5]	GI50 [6]	GI50 [7]	GI50 [8]	GI50 [9]	GI50 [10]	GI50 [11]	GI50 [12]	GI50 [13]	GI50 [14]	GI50 [15]	GI50 [16]	GI50 [17]	GI50 [18]	GI50 [19]	GI50 [20]
COc1cccc(C(=O)O[C@H]2[C@@H]3[C@]4(OC(C)=O)CO[C@@H]4C[C@H](O)[C@@]3(C)C(=O)[C@H](OC(C)=O)C3=C(C)[C@@H](OC(=O)[C@H](O)[C@@H](NC(=O)OC(C)(C)C)c4ccco4)C[C@]2(O)C3(C)C)c1	6.04 µM (inactive)	0.0107 µM (active)	< 0.00375 µM (active)	< 0.00375 µM (active)	< 0.00375 µM (active)	< 0.00375 µM (active)	< 0.00375 µM (active)	0.064 µM (active)	< 0.00375 µM (active)	< 0.00375 µM (active)	0.139 µM (active)	< 0.00375 µM (active)	< 0.00375 µM (active)	< 0.00375 µM (active)	< 0.00375 µM (active)	< 0.00375 µM (active)	< 0.00375 µM (active)	< 0.00375 µM (active)	< 0.00375 µM (active)	–
CC(Br)C(=O)c1ccc2cc(Br)c3ccccc3c2c1 (stereo unspecified)	16 µM (inactive)	18 µM (inactive)	–	12.9 µM (inactive)	20 µM (inactive)	13.1 µM (inactive)	16.5 µM (inactive)	7.01 µM (inactive)	–	12 µM (inactive)	17.6 µM (inactive)	–	13.2 µM (inactive)	17.2 µM (inactive)	17.1 µM (inactive)	15.7 µM (inactive)	3.15 µM (inactive)	14 µM (inactive)	13.7 µM (inactive)	11.9 µM (inactive)
O=c1[nH]c(=O)c2c([nH]1)[nH]c1ccc(Br)cc12	> 100 µM (inactive)	> 100 µM (inactive)	–	> 100 µM (inactive)	> 100 µM (inactive)	77.6 µM (inactive)	> 100 µM (inactive)	> 100 µM (inactive)	> 100 µM (inactive)	70.6 µM (inactive)	70 µM (inactive)	–	> 100 µM (inactive)	21.8 µM (inactive)	> 100 µM (inactive)	28 µM (inactive)	> 100 µM (inactive)	> 100 µM (inactive)	–	> 100 µM (inactive)
O=[N+]([O-])C(=C/C1CCCCC1)/C(=C\C1CCCCC1)[N+](=O)[O-]	2.99 µM (inactive)	2.47 µM (inactive)	1.56 µM (inactive)	–	18.6 µM (inactive)	5.27 µM (inactive)	13.3 µM (inactive)	3.24 µM (inactive)	2.18 µM (inactive)	2.09 µM (inactive)	3.5 µM (inactive)	6.32 µM (inactive)	16.3 µM (inactive)	11.1 µM (inactive)	5.48 µM (inactive)	20.2 µM (inactive)	1.8 µM (inactive)	3.3 µM (inactive)	3.73 µM (inactive)	9.73 µM (inactive)
CCCCCCOc1ccc(C(=O)NOCc2ccccc2)cc1	> 100 µM (inactive)	> 100 µM (inactive)	79.6 µM (inactive)	45.8 µM (inactive)	> 100 µM (inactive)	> 100 µM (inactive)	> 100 µM (inactive)	> 100 µM (inactive)	> 100 µM (inactive)	39.7 µM (inactive)	> 100 µM (inactive)	> 100 µM (inactive)	> 100 µM (inactive)	> 100 µM (inactive)	> 100 µM (inactive)	> 100 µM (inactive)	18.5 µM (inactive)	> 100 µM (inactive)	> 100 µM (inactive)	–
OC1OC(c2ccco2)C(F)(F)C(F)(F)C1(F)F (stereo unspecified)	–	61.5 µM (inactive)	–	> 100 µM (inactive)	74 µM (inactive)	> 100 µM (inactive)	> 100 µM (inactive)	> 100 µM (inactive)	> 100 µM (inactive)	34.4 µM (inactive)	> 100 µM (inactive)	> 100 µM (inactive)	> 100 µM (inactive)	19.9 µM (inactive)	23.3 µM (inactive)	–	–	> 100 µM (inactive)	> 100 µM (inactive)	46.2 µM (inactive)
O=C(NS(=O)(=O)Nc1ccc(Cl)cc1)OCc1ccc(Cl)cc1Cl	20.2 µM (inactive)	21.9 µM (inactive)	46.2 µM (inactive)	14.7 µM (inactive)	21.8 µM (inactive)	17.8 µM (inactive)	21.3 µM (inactive)	25.3 µM (inactive)	19.9 µM (inactive)	25.3 µM (inactive)	38.5 µM (inactive)	31.4 µM (inactive)	28.8 µM (inactive)	21.4 µM (inactive)	20.5 µM (inactive)	12.1 µM (inactive)	38.2 µM (inactive)	31.3 µM (inactive)	28.6 µM (inactive)	–
Clc1ccc(Nc2nnc(CCCCCCCCc3nnc(Nc4ccc(Cl)cc4)o3)o2)cc1	27.6 µM (inactive)	36 µM (inactive)	10.9 µM (inactive)	33.3 µM (inactive)	28.1 µM (inactive)	8 µM (inactive)	25.5 µM (inactive)	45.7 µM (inactive)	–	–	38.8 µM (inactive)	38.1 µM (inactive)	50.8 µM (inactive)	23.4 µM (inactive)	32 µM (inactive)	36.4 µM (inactive)	–	–	38.3 µM (inactive)	–
CN1C(=O)N(C)C(O)C(Cl)(Br)C1=O (stereo unspecified)	> 100 µM (inactive)	> 100 µM (inactive)	> 100 µM (inactive)	> 100 µM (inactive)	> 100 µM (inactive)	> 100 µM (inactive)	> 100 µM (inactive)	> 100 µM (inactive)	> 100 µM (inactive)	> 100 µM (inactive)	> 100 µM (inactive)	> 100 µM (inactive)	> 100 µM (inactive)	> 100 µM (inactive)	> 100 µM (inactive)	> 100 µM (inactive)	> 100 µM (inactive)	> 100 µM (inactive)	> 100 µM (inactive)	–
COC(=O)[C@H]1COC(=O)N1	> 100 µM (inactive)	> 100 µM (inactive)	> 100 µM (inactive)	> 100 µM (inactive)	> 100 µM (inactive)	> 100 µM (inactive)	> 100 µM (inactive)	> 100 µM (inactive)	> 100 µM (inactive)	89.7 µM (inactive)	> 100 µM (inactive)	–	> 100 µM (inactive)	> 100 µM (inactive)	> 100 µM (inactive)	> 100 µM (inactive)	–	> 100 µM (inactive)	> 100 µM (inactive)	> 100 µM (inactive)
Oc1cc2c(cc1C(c1ccc3c(c1)OCO3)N1CCN(C(c3ccc4c(c3)OCO4)c3cc4c(cc3O)OCO4)CC1)OCO2 (stereo unspecified)	16.9 µM (inactive)	19.2 µM (inactive)	7.08 µM (inactive)	–	34 µM (inactive)	16.9 µM (inactive)	20.3 µM (inactive)	16 µM (inactive)	16.7 µM (inactive)	32.5 µM (inactive)	13.7 µM (inactive)	28.9 µM (inactive)	19.5 µM (inactive)	16.7 µM (inactive)	5.26 µM (inactive)	–	3.61 µM (inactive)	14 µM (inactive)	15.4 µM (inactive)	17.2 µM (inactive)
C[C@]12CCC(=O)C=C1CC[C@@H]1C2CC[C@]2(C)Nc3c(ncn3-c3ccc(F)cc3)CC12 (stereo partly specified)	23.1 µM (inactive)	–	23.3 µM (inactive)	11.8 µM (inactive)	21.9 µM (inactive)	52.4 µM (inactive)	23.7 µM (inactive)	41.3 µM (inactive)	11.7 µM (inactive)	3.2 µM (inactive)	20.8 µM (inactive)	12 µM (inactive)	–	17.2 µM (inactive)	18.9 µM (inactive)	20.2 µM (inactive)	3.34 µM (inactive)	35.2 µM (inactive)	20.9 µM (inactive)	18.3 µM (inactive)
COc1ccc(NC(=O)CC/C(CC(=O)c2ccco2)=N/Nc2ccc([N+](=O)[O-])cc2[N+](=O)[O-])cc1	14.3 µM (inactive)	–	29.3 µM (inactive)	–	> 100 µM (inactive)	> 100 µM (inactive)	–	> 100 µM (inactive)	> 100 µM (inactive)	30.1 µM (inactive)	> 100 µM (inactive)	–	72.1 µM (inactive)	> 100 µM (inactive)	48 µM (inactive)	> 100 µM (inactive)	26.7 µM (inactive)	> 100 µM (inactive)	> 100 µM (inactive)	–
CN(C)C1(c2cc3ccccc3s2)CCCCC1	49.8 µM (inactive)	44.1 µM (inactive)	19.2 µM (inactive)	32.2 µM (inactive)	51.2 µM (inactive)	36.1 µM (inactive)	54.8 µM (inactive)	53.2 µM (inactive)	50.1 µM (inactive)	< 0.01 µM (active)	51.2 µM (inactive)	28.8 µM (inactive)	24.3 µM (inactive)	36.5 µM (inactive)	33 µM (inactive)	22.9 µM (inactive)	18 µM (inactive)	51.3 µM (inactive)	43.6 µM (inactive)	–
Nc1nc(O)c([I+]c2ccccc2)c(=O)[nH]1	> 100 µM (inactive)	> 100 µM (inactive)	> 100 µM (inactive)	> 100 µM (inactive)	> 100 µM (inactive)	> 100 µM (inactive)	> 100 µM (inactive)	> 100 µM (inactive)	> 100 µM (inactive)	> 100 µM (inactive)	> 100 µM (inactive)	> 100 µM (inactive)	–	> 100 µM (inactive)	> 100 µM (inactive)	> 100 µM (inactive)	> 100 µM (inactive)	> 100 µM (inactive)	> 100 µM (inactive)	–
